Reference: publication doi:10.1101/2022.08.24.505199v2 (biorxiv, 2025)

Experiments:
[1] = molecular target: NKA α1 purified from pig kidney (outer medulla) (Sus scrofa, UniProt P05024); assay: SPR; assay type: binding
Mouse NKA α3β1 = Mouse NKA α3β1 (Mus musculus, UniProt Q6PIC6); assay: NKA ATPase activity inhibition, dose response; assay type: biochemical

C=Cc1cccc2c1N(C)Cc1cc3c(cc1-2)OCO3 [HLY72]
Kd [1]: 4.2 µM
IC50 (Mouse NKA α3β1): 18.6 µM
